# Measurements as given in patent US11786486B2, “Pharmaceutical compositions comprising 2,3,5-trimethyl-6-nonylcyclohexa-2,5-diene-1,4-dione” (PTC THERAPEUTICS, INC., priority 2021, dated 2023).
# Experiments:
# [1] = Solubility of Compound 1 in oils, surfactants and co-surfactants; type: physicochemical
# Description: Based on the initial screening as shown in Table 1 and based on limits of excipients allowed by FDA, the solubility of Compound 1 in the oils in Table 1A were measured. Based on the solubility data, Labrafac WL 1349 was further pursued.
# A total of 36 different excipients including pharmaceutically acceptable oils, surfactants and co-surfactants were evaluated for Compound 1. Higher solubility of Compound 1 in oils is desirable to increase drug loading.
# [2] = Physical stability on storage (microscope / polarized microscope); type: physicochemical; conditions: 25° C./60% RH and 5° C.
# Description: Certain combinations of Gelucire 44/14 with Solutol HS15, TPGS and Tween 80 were screened as shown in Table 2 at 200 mg/g concentration of Compound 1. Physical stability was observed microscopically at week one at 25° C./60% RH and at 5° C. Bioperformance was assessed visual observation after 10× dilution in FaSSIF. Based on the crash resistance test performed with ten times dilution with FaSSIF, the most promising formulation combination for Gelucire 44/14 appeared to be 80% w/w Gelucire 44/14, 10% w/w TPGS and 10% w/w Tween 80.
# In the above table and in this paragraph, the % w/w are based on the total weight of the vehicle without compound. The 80% w/w Gelucire 44/14, 10% w/w TPGS and 10% w/w Tween 80 formulation vehicles were further tested at lower Compound 1 concentrations of 150 mg/g (i.e. 150 mg of Compound 1 in 1 g of Compound 1+vehicle) and 100 mg/g (i.e. 100 mg of Compound 1 in 1 g of Compound 1+vehicle) to minimize the crystallization risk upon storage. Physical stability was observed microscopically at week one at 25° C./60% RH and at 5° C. Bioperformance was assessed visual observation after 10× dilution in FaSSIF.
# Physical stability evaluation of both Gelucire 44/14-based and Labrafac-WL-1349-based formulation vehicles was done under polarized microscope. […] Therefore, Labrafac-WL-1349-based formulation was physically stable upon storage.
compound,measurement,setting,value
"CCCCCCCCCC1=C(C)C(=O)C(C)=C(C)C1=O [Compound 1, 2,3,5-trimethyl-6-nonylcyclohexa-2,5-diene-1,4-dione]",Solubility of Compound 1,"[1]; in Soybean oil, RT",<150 mg/g
same,solubility,"[1]; oil or lipid, in Capryol 90, RT",125 mg/mL
same,solubility,"[1]; oil or lipid, in Capryol PGMC, RT",184 mg/mL
same,solubility,"[1]; oil or lipid, in Corn Oil, RT",115 mg/mL
same,solubility,"[1]; oil or lipid, in Cottonseed Oil, RT",112 mg/mL
same,solubility,"[1]; oil or lipid, in Labrafac Lipo WL1349, RT",141 mg/mL
same,solubility,"[1]; oil or lipid, in Labrafac PG, RT",222 mg/mL
same,solubility,"[1]; oil or lipid, in Labrafil M1944CS, RT",101 mg/mL
same,solubility,"[1]; oil or lipid, in Labrafil M2125CS, RT",119 mg/mL
same,solubility,"[1]; oil or lipid, in Lauroglycol 90, RT",133 mg/mL
same,solubility,"[1]; oil or lipid, in Lauroglycol FCC, RT",160 mg/mL
same,solubility,"[1]; oil or lipid, in Maisine CC, RT",90.3 mg/mL
same,solubility,"[1]; oil or lipid, in Olive oil, RT",135 mg/mL
same,solubility,"[1]; oil or lipid, in Plurol oleique CC 497",50 to 100 mg/mL
same,solubility,"[1]; oil or lipid, in Sesame oil, RT",139 mg/mL
same,solubility,"[1]; oil or lipid, in Soybean Oil, RT",111 mg/mL
same,solubility,"[1]; organic solvent or mixture, in Gelucire 44/14, 45° C.",269 mg/mL
same,solubility,"[1]; organic solvent or mixture, in Labrasol, RT",35.7 mg/mL
same,solubility,"[1]; organic solvent or mixture, in PEG400, 37° C.",11 mg/mL
same,solubility,"[1]; organic solvent or mixture, in Solutol HS15, 37° C.",94 mg/mL
same,solubility,"[1]; organic solvent or mixture, in TPGS, 45° C.",195 mg/mL
same,solubility,"[1]; organic solvent or mixture, in Triethyl citrate, RT",30.1 mg/mL
same,solubility,"[1]; organic solvent or mixture, in Tween 60",50 to 100 mg/mL
same,solubility,"[1]; organic solvent or mixture, in Tween 80",25 to 50 mg/mL
same,Physical stability,"[2]; 150 mg/g in vehicle 80% Gelucire 44/14, 10% TPGS, 10% Tween 80, week one",Crystallization observed
same,Physical stability,"[2]; 200 mg/g in vehicle 70% Gelucire 44/14, 10% TPGS, 20% Tween 80, week one",Crystallization
same,Physical stability,"[2]; 200 mg/g in vehicle 80% Gelucire 44/14, 10% TPGS, 10% Tween 80, week one",Crystallization
same,Physical stability,"[2]; 200 mg/g in vehicle 80% Gelucire 44/14, 20% Tween 80, week one",Crystallization
same,Physical stability,"[2]; 200 mg/g in vehicle 85% Gelucire 44/14, 5% Solutol HS15, 5% TPGS, 5% Tween 80, week one",Crystallization
same,Physical stability,"[2]; 200 mg/g in vehicle 90% Gelucire 44/14, 10% TPGS, week one",Crystallization
same,Physical stability,"[2]; 200 mg/g in vehicle 90% Gelucire 44/14, 10% Tween 80, week one",Crystallization
